# Test results as given in patent US12465610B2, “Compounds and methods for the treatment of PKR-associated diseases” (Board of Regents, The University of Texas System, priority 2019, dated 2025).
# Experiments:
# [1] = test system: LOVO colon cancer cells; assay: SRB cell viability assay; format: cell-based, human; conditions: 72 hours after treatment
# Description: PKR and PI4K2A expression are associated with poor prognosis in cancer patients: PKR and PI4K2A are encoded by the EIF2AK2 and PI4K2A genes, respectively. […] It was also examined the expression of PKR using immunohistochemical staining of five normal skin and five breast tumor samples and observed that all of the breast tumor cells had high cytoplasmic PKR expression (FIG. 7C). However, all of the normal skin cells had low cytoplasmic PKR expression, and some of them had high nuclear PKR expression. […] Furthermore, the association between EIF2AK2 or PI4K2A gene expression and overall survival was evaluated in colorectal cancer patients using the TCGA data set. […]
# Cell viability assays: For SRB assays, cells (2-8×10^3/well in 100 μL of culture medium) were seeded in 96-well flat-bottomed plates and treated the next day with compounds at the indicated concentrations. […] The protein was stained with SRB, and the optical density at 570 nm was determined. Relative cell viability was calculated by setting the viability rate of the control cells (exposed only to dimethyl sulfoxide) at 100% and comparing the viability of the treated cells with that of the controls. […] The viability of leukemia cell lines was determined by using a 3-(4,5-dimethylthiazol-2-yl)-2,5-diphenyltetrazolium bromide assay. […]
# [2] = test system: 127 human lung cancer cell lines; assay: SRB assay, oncopanel of 127 lung cancer cell lines; format: cell-based
# Description: Antiproliferative effect of Pac 1 and Pac 2 on an oncopanel of lung cancer cell lines: The antiproliferative effect of treatment with Pac1 were further tested on an oncopanel of 127 cell lines of various lung tumor origins. […] RPPA analysis of Pac 1-sensitive cells identified correlation with higher expression of GSK3 (FIG. 16B), and Pac 1-resistant cells correlation with higher expression of IRS1, Caveolin and PKCA (PS657) (FIG. 16B). Analyzed the Pac1 sensitivity with gene mutation observed that low Pac 1 IC50 correlated with VCAN and ZNF804A mutation, and high Pac 1 IC50 correlated with LOXHD1 and CDH12 mutation (FIG. 16C). VCAN mutant lung cancer cells are sensitive to treatment of Pac 1.
# (§1) Cell viability assays: For SRB assays, cells (2-8×10^3/well in 100 μL of culture medium) were seeded in 96-well flat-bottomed plates and treated the next day with compounds at the indicated concentrations. After the indicated treatments, cells were fixed with trichloroacetic acid. The protein was stained with SRB, and the optical density at 570 nm was determined. Relative cell viability was calculated by setting the viability rate of the control cells (exposed only to dimethyl sulfoxide) at 100% and comparing the viability of the treated cells with that of the controls. The experiments were performed at least three times for each cell line. The viability of leukemia cell lines was determined by using a 3-(4,5-dimethylthiazol-2-yl)-2,5-diphenyltetrazolium bromide assay.
# [3] = biological target: PI3 Kg (Homo sapiens, UniProt P48736); assay: ADP-Glo kinase assay, high-throughput enzymatic screening (Reaction Biology); format: biochemical
# Sequence of PI3 Kg (P48736 whole entry): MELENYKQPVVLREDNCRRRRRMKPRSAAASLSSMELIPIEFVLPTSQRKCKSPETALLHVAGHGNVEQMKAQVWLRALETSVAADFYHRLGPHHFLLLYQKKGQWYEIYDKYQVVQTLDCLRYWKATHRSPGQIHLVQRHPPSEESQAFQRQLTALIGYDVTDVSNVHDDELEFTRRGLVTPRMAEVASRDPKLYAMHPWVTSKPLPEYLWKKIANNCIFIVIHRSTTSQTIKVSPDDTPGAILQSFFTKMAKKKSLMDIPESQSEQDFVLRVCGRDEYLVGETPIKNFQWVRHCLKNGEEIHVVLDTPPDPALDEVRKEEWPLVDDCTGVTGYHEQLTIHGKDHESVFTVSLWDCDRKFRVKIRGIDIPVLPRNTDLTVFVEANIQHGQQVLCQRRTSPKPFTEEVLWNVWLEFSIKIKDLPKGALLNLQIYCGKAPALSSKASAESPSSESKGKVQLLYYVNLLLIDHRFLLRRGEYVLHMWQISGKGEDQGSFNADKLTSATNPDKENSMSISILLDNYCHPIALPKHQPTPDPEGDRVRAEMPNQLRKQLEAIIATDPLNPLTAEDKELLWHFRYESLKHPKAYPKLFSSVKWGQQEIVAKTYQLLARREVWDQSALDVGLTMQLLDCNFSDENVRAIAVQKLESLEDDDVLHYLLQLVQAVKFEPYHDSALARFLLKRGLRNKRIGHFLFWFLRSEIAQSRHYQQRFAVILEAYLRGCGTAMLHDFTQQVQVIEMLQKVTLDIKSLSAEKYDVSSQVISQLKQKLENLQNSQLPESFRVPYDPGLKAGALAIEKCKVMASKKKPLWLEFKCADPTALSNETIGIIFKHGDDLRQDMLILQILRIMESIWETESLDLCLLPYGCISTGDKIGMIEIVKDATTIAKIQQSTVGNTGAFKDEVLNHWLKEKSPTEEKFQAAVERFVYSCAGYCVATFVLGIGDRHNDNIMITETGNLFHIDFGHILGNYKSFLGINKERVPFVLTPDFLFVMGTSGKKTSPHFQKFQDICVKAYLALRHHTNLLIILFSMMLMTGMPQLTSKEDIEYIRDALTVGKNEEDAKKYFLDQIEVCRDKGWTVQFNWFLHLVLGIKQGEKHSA
# [4] = biological target: PIM1 (Homo sapiens, UniProt P11309); assay: High-throughput enzymatic screening; format: biochemical
# Sequence of PIM1 (P11309 whole entry): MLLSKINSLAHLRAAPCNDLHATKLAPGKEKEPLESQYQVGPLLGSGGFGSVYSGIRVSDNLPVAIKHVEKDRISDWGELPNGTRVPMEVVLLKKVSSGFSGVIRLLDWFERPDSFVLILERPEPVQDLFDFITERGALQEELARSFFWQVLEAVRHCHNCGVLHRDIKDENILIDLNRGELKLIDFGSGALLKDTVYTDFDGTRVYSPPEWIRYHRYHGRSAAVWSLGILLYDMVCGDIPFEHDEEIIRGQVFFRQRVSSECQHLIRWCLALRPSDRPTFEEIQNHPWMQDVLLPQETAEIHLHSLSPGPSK
# [5] = test system: HeLa cells; assay: SRB cell viability assay; format: cell-based, human; conditions: 72 hours after treatment
# Procedure: Anticancer effects of PKR-targeting compounds depend on PKR expression status: To identify compounds that can target lysosomes in PKR-positive cells or MVBs/exosomes in PKR-negative cells, the 10,000-compound ChemBridge library was screened for compounds with different effects on the growth of HeLa and HeLaPKRkd cells. […] SRB assays were next used to determine cell viability after treatment with Pac 1 or Pac 2.
# as §1
# Identification of PKR-associated compounds and cytotoxicity studies: The library of 10,000 compounds was screened for those with different effects on the growth of HeLa and HeLaPKRkd cells. […] Treated cells were observed under a microscope to detect morphologic changes, and their viability was determined using SRB assays 2 and 3 days after treatment. […]
# For the SRB assay, cells (2-8×10^3/well in 100 μL of culture medium) were seeded in 96-well flat-bottomed plates and treated the next day with compounds at the indicated concentrations. […] The cells were stained using SRB, and the optical density at 570 nm was determined. Relative cell viability was determined by setting the viability of the control cells (exposed only to dimethyl sulfoxide) at 100% and comparing their viability with that of the treated cells. […]
# [6] = Toxicity in mice; conditions: 50 mg/kg intravenously daily for 7 days
# [7] = test system: normal cells (HBE, human mammary epithelial cells); assay: SRB cell viability assay, normal cells; format: cell-based; conditions: 72 hours after treatment, HBE and human mammary epithelial cells
# Procedure: (§2) The effects of Pac 1 and Pac 2 were next examined on PKR protein expression in HeLa cells using Western blot analysis. […] No reduction in normal cell viability was observed after treatment with Pac 1 or Pac 2 (FIGS. 5F and G). […] Because most of the cancer cell lines that were tested were more sensitive to Pac 1 than to Pac 2, Pac 1 was further investigated.
# as §1
# For the SRB assay, cells (2-8×10^3/well in 100 μL of culture medium) were seeded in 96-well flat-bottomed plates and treated the next day with compounds at the indicated concentrations. […] The cells were stained using SRB, and the optical density at 570 nm was determined. […]
# [8] = biological target: PI4KIIIb (Homo sapiens, UniProt Q9UBF8); assay: ADP-Glo kinase assay, high-throughput enzymatic screening (Reaction Biology); format: biochemical
# Sequence of PI4KIIIb (Q9UBF8 whole entry): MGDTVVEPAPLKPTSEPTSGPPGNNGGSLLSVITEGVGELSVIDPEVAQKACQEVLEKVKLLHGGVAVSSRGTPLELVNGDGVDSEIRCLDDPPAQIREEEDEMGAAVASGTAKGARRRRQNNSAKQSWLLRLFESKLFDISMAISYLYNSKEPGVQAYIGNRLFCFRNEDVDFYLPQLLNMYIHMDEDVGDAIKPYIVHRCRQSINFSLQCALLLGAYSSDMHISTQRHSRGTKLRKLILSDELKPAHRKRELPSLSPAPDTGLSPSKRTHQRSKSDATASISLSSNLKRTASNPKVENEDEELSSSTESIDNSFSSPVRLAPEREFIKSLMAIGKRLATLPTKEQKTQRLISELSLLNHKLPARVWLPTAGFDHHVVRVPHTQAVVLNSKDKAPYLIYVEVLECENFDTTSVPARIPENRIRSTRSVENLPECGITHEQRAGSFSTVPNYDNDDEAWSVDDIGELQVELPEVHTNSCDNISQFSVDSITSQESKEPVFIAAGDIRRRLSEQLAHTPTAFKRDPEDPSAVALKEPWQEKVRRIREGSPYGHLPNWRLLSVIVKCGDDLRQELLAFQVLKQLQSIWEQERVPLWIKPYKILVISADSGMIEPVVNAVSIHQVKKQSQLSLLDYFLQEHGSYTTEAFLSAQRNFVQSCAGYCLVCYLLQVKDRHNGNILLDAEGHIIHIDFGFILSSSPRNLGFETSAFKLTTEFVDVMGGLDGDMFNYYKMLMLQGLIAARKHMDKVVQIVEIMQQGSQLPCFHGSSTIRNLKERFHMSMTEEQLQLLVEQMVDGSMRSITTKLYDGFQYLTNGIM
# [9] = test system: PI4K2A protein; assay: Thermal shift assay (differential scanning fluorimetry); format: binding
# [10] = biological target: PKR (Homo sapiens, UniProt P19525); assay: ADP-Glo kinase assay, high-throughput enzymatic screening (Reaction Biology); format: biochemical
# Sequence of PKR (P19525 whole entry): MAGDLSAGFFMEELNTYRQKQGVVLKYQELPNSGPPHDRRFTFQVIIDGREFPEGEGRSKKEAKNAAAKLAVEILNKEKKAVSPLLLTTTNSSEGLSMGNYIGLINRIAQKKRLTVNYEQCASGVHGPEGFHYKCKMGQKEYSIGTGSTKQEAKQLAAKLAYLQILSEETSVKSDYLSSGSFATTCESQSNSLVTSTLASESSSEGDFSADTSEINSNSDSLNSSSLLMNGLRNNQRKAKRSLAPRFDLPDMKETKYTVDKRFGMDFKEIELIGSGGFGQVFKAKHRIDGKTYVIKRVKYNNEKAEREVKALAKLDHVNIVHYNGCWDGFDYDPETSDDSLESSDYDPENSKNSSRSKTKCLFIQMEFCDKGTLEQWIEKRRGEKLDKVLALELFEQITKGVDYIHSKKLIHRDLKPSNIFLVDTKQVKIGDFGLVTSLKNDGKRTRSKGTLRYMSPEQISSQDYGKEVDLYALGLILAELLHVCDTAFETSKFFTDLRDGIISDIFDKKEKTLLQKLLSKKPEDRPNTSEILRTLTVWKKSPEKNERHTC
# [11] = biological target: PI4KIIb (Homo sapiens, UniProt Q8TCG2); assay: as above; format: biochemical
# [12] = test system: AP-1/2/3 complexes; assay: Western blot of AP-1, AP-2 and AP-3 complex-associated proteins; format: cell-based, human; conditions: H1299 and MDA-MB-231 cells
# Description: Western blotting was next used to evaluate proteins known to be involved in AP-1/2/3 complexes in lung (H1299) and breast (MDA-MB-231) cancer cells after treatment with Pac 1 or Pac 2. […] AP-1 and AP-2 mediate protein sorting in the endosome, trans-Golgi network, and plasma membrane. […] The impact of Pac 1 was then investigated on lysosome function by staining cells with the acidophilic dye LysoTracker Red.
# [13] = test system: H1299; assay: SRB cell viability assay; format: cell-based, human; conditions: 72 hours after treatment
# Procedure: as §2, §1
# (§3) For the SRB assay, cells (2-8×10^3/well in 100 μL of culture medium) were seeded in 96-well flat-bottomed plates and treated the next day with compounds at the indicated concentrations. After treatment for the indicated times, cells were fixed with trichloroacetic acid. The cells were stained using SRB, and the optical density at 570 nm was determined. Relative cell viability was determined by setting the viability of the control cells (exposed only to dimethyl sulfoxide) at 100% and comparing their viability with that of the treated cells. The experiments were performed at least three times for each cell line.
# [14] = test system: A549; assay: SRB cell viability assay; format: cell-based, human; conditions: 72 hours after treatment
# Procedure: as §2, §1, §3
# [15] = test system: breast cancer cell lines; assay: SRB cell viability assay; format: cell-based, human; conditions: 72 hours after treatment
# Procedure: as §2, §1, §3
# [16] = test system: leukemia cell lines; assay: 3-(4,5-dimethylthiazol-2-yl)-2,5-diphenyltetrazolium bromide viability assay; format: cell-based
# Procedure: as §1
# [17] = biological target: PI4KIIIa (Homo sapiens, UniProt P42356); assay: ADP-Glo kinase assay, high-throughput enzymatic screening (Reaction Biology); format: biochemical
# Sequence of PI4KIIIa (P42356 whole entry): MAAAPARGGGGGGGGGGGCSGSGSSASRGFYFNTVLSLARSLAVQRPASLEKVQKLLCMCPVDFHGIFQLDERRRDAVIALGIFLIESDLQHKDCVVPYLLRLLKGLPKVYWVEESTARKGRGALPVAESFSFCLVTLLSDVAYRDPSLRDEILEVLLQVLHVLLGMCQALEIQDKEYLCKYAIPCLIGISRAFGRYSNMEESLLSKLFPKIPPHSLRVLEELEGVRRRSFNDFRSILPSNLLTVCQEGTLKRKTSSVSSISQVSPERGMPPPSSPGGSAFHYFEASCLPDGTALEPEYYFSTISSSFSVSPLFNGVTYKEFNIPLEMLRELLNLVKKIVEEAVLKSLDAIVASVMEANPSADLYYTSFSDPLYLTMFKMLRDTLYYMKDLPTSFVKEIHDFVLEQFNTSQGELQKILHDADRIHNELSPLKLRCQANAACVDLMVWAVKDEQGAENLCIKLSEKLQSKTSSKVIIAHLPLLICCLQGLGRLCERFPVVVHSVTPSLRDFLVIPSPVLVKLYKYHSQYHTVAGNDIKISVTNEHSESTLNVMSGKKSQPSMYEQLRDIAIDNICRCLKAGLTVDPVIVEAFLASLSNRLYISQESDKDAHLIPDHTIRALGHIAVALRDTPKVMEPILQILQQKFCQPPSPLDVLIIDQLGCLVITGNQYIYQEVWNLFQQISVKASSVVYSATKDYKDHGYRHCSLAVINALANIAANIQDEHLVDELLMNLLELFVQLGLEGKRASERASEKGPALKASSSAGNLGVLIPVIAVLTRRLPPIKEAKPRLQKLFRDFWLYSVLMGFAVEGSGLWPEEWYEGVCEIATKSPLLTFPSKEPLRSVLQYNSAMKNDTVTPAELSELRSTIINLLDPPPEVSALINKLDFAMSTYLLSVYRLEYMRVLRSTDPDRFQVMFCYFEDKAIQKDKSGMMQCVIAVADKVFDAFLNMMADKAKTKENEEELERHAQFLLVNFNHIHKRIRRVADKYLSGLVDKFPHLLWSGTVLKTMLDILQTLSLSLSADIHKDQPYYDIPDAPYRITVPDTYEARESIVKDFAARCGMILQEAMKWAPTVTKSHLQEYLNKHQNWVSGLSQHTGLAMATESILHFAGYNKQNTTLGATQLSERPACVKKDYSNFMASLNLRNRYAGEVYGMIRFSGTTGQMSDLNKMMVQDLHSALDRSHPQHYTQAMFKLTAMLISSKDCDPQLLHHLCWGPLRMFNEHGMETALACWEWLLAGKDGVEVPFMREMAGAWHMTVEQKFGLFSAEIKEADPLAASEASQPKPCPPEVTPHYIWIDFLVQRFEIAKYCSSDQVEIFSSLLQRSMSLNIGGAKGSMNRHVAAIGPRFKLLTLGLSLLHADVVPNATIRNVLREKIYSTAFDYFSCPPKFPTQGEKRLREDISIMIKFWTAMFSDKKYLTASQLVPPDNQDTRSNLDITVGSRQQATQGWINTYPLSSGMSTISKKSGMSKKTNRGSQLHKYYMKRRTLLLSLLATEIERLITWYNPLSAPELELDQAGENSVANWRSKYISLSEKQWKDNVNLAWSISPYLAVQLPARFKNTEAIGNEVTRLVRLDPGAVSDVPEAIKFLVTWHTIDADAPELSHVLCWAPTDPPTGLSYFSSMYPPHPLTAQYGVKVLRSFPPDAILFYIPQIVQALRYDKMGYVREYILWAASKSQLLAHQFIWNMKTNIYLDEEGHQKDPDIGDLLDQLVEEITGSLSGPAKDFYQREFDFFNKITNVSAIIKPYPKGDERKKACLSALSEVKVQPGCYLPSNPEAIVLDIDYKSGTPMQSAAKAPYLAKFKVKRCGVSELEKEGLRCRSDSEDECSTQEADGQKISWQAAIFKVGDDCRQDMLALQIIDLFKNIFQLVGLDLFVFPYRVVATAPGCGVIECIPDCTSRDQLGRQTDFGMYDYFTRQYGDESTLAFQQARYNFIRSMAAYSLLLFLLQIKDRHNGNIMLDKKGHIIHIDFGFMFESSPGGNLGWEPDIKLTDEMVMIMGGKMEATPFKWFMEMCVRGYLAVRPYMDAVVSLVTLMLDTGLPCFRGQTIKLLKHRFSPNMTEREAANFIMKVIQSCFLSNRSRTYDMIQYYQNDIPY
smiles,measurement,setting,value
"O=C(N/N=C\c1c(O)ccc2ccccc12)c1cccc2cc[nH]c12 [Pac 1, N′—[(Z)-(2-Hydroxy-1-naphthyl)methylene]-1H-indole-7-carbohydrazide]",growth of LOVO colon cancer cells,[1],inhibited the growth
same,IC50,"[2]; Homo sapiens, sensitive cell lines of the oncopanel of 127 lung cancer cell lines",10 to 950 nM
same,sensitivity of VCAN mutant lung cancer cells,[2]; VCAN mutants versus VCAN wild-type cells,sensitive
same,share of cell lines sensitive,[2]; oncopanel of 127 cell lines of various lung tumor origins,Sixty-five
same,inhibition of kinase activity,[3],not other kinases
same,inhibition of PIM3/1 activity,[4],markedly inhibited
same,viability of HeLa cells,[5],suppressed more effectively by Pac 1 than by Pac 2
same,"blood chemistry: aspartate aminotransferase, SGOT, SGPT, alkaline phosphatase, creatine kinase, lactate dehydrogenase levels",[6],normal
same,histopathologic examination of major organs,"[6]; heart, lungs, liver, kidneys, pancreas, spleen",no significant changes in any major organs
same,normal cell viability,[7],No reduction
same,inhibition of kinase activity,[8],not other kinases
same,binding to PI4K2A and change of melting temperature,[9],binds to PI4K2A and causes a decrease in the melting temperature
same,inhibition of PKR kinase activity,[10],did not inhibit
same,inhibition of kinase activity,[11],not other kinases
same,"PI4K2A, Lamp1, Lamp2, and AP-3δ expression","[12]; 5 μM, 72 hours",significantly inhibited
same,"expression of proteins associated with AP-1 (Rab7α, HSC70, AP-1γ) or AP-2 (AP-2α)",[12]; 72 hours after treatment,No reduction of expression
same,sensitivity (viability) of H1299 cells,[13],more sensitive to treatment with Pac 1 than that with Pac 2
same,sensitivity (viability) of A549 cells,[14],more sensitive to treatment with Pac 1 than that with Pac 2
same,growth of breast cancer cell lines,[15],inhibited the growth
same,growth of leukemia cell lines,[16],growth inhibition
same,inhibition of kinase activity,[17],not other kinases
